The source of these data is US20090012172A1, “Cosmetic/pharmaceutical compositions comprising retinoids and anti-irritants and treatment of keratinization disorders therewith” (GALDERMA RESEARCH & DEVELOPMENT, priority 2005, published 2009).

The test system of assay [1] is ear of the BALB/c mouse. In words: Tolerance study: anti-irritant in preventive treatment before topical Differin gel, ear thickness (edema). Format: in vivo. The conditions noted are these: anti-irritant applied before Differin gel. How it is done: The goal of the present study is to compare the irritant power of a reference gel, comprising 0.1% adapalene, when this treatment is preceded or not preceded by treatment with an anti-irritant.
(§1) The treatment consists of a daily topical application (20 μl) of anti-irritant, formulated in an aqueous/alcoholic vehicle (50% ethanol and 50% water by volume), on the internal face of the right ear of BALB/c mice divided into 15 groups (female mice approximately 9 weeks old), followed by a topical application (20 μl) of Differin® gel (reference gel comprising 0.1% adapalene) at the rate of one application of each formulation per day for 6 days.
(§2) Evaluation is carried out by measurements of the thickness of the ear by means of the Oditest and by clinical observation of the animals from the 2nd to 19th day.

Assay [2] deals with skin of the back of the Rhino mouse (comedones). In words: Comedolytic activity of Differin gel alone or preceded by anti-irritant on the Rhino mouse. Format: in vivo, RHINO FVB/N RJ-hr (Rhino) mouse. The procedure:
The goal of the present study is to compare the comedolytic activity of Differin® gel (reference gel comprising 0.1% adapalene) whether this treatment is preceded or not preceded by a treatment with an anti-irritant.
The treatment consists of a daily topical application of an aqueous/alcoholic vehicle (ethanol/water 50:50) comprising the anti-irritant potassium salt of 18β-glycyrrhetinic acid, followed 30 minutes later by an application of Differin® gel, on the skin of the back of the RHINO FVB/N RJ-hr^th (Rhino) mouse for 18 days.

For assay [3], the system named is ear of the BALB/c mouse. The assay can be described thus: Study of tolerance of the formulation of Example 4 (non-split treatment), ear thickness. Type of assay: in vivo. The conditions noted are these: adapalene and anti-irritant in the same formulation. How it is done: as §1, §2
A study of tolerance is carried out according to the protocol of Example 2 with the formulation of Example 4. However, the present case, in contrast to Example 2, relates to a treatment which is not split since the adapalene and the anti-irritant are present in the same formulation.

“Also recorded” adds a separate entry of the source.

Take `CC1(C)[C@@H](O)CC[C@]2(C)[C@H]3C(=O)C=C4[C@@H]5C[C@@](C)(C(=O)O)CC[C@]5(C)CC[C@@]4(C)[C@]3(C)CC[C@@H]12` [Enoxolone, 18β-Glycyrrhetinic acid]: the “effect on the irritation caused by Differin gel (in words)” value is recorded as “virtually no effect” in assay [1] and “does not have an effect on the irritation due to retinoids” in assay [1] (listed as enoxolone).

Consider `CC1(C)[C@@H](O)CC[C@]2(C)[C@H]3C(=O)C=C4[C@@H]5C[C@@](C)(C(=O)[O-])CC[C@]5(C)CC[C@@]4(C)[C@]3(C)CC[C@@H]12.[K+]` [Potassium salt of 18β-glycyrrhetinic acid], for which the “number of comedones per centimeter” value in assay [2] (back of Rhino mice after 18 days of daily topical treatment) is “statistically equivalent to that of groups 1 and 3”. Also, the “effect on the comedolytic activity of Differin gel (in words)” value in assay [2] (split treatment, anti-irritant 30 minutes before Differin gel, 18 days) is reported as “does not reduce the comedolytic activity”. Besides, in assay [1], the “effect on the irritation caused by Differin gel (in words)” value was “effective in reducing the irritation due to adapalene; also recorded: significantly reduces the irritation”. Moreover, the “anti-irritant effect (in words)” value in assay [3] is recorded as “appears to be an effective anti-irritant”.
